According to ChEMBL document CHEMBL1141671, “N6-1,3-diphenylurea derivatives of 2-phenyl-9-benzyladenines and 8-azaadenines: synthesis and biological evaluation as allosteric modulators of A2A adenosine receptors” (Eur J Med Chem, 2008):

Tests used:
Adenosine receptor A2a [1] = target: T1, Adenosine receptor A2a (Homo sapiens, UniProt P29274); assay: Displacement of [3H]CGS21680 from human recombinant adenosine A2A receptor expressed in CHO cells at 10 uM by liquid scintillation counting relative to control; format: cell-based
T1 sequence (P29274 whole entry): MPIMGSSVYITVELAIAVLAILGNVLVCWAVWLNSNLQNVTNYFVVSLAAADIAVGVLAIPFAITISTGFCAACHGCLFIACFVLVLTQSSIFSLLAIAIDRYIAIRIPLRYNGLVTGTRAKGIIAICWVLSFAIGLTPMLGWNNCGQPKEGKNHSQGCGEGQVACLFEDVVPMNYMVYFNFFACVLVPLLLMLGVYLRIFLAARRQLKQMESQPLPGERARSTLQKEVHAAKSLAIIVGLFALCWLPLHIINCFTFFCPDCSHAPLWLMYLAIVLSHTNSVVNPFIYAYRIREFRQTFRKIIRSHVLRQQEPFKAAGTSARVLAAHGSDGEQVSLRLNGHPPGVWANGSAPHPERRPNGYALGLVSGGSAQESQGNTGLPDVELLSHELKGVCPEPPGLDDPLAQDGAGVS

[2] = target: T2, Adenosine receptor A1 (Rattus norvegicus) (UniProt P25099); assay: Displacement of [3H]CCPA adenosine A1 receptor in Wistar rat cerebral cortex at 10 uM by liquid scintillation counting relative to control; format: tissue-based
T2 sequence (whole entry): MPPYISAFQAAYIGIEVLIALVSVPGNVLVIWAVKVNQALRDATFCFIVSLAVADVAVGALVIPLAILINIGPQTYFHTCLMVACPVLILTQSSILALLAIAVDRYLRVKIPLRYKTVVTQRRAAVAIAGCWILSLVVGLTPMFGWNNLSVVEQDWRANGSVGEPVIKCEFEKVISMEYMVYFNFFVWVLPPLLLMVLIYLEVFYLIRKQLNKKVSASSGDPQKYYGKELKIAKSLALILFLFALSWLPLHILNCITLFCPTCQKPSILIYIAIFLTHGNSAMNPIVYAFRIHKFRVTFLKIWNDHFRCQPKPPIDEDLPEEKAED

[3] = target: T3, Adenosine receptor A3 (Homo sapiens) (UniProt P0DMS8); assay: Displacement of [3H]NECA from human recombinant adenosine A3 receptor expressed in CHO cells at 10 uM by liquid scintillation counting relative to control; format: cell-based
T3 sequence (whole entry): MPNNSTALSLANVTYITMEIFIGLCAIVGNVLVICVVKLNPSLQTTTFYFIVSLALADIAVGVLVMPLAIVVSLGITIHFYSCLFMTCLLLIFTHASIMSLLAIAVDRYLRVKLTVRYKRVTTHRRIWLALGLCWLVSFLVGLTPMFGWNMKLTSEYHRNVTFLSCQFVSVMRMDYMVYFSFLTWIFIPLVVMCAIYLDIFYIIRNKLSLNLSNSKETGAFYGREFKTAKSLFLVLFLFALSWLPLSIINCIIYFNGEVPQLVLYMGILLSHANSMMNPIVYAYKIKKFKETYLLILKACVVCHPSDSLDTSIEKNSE

[4] = target: T2, Adenosine receptor A1 (Rattus norvegicus); assay: Displacement of [3H]DPCPX from adenosine A1 receptor in Wistar rat cerebral cortex at 10 uM by liquid scintillation counting relative to control; format: tissue-based
Adenosine receptor A2a [5] = target: T1, Adenosine receptor A2a; assay: Displacement of [3H]ZM241385 from human recombinant adenosine A2A receptor expressed in CHO cells at 10 uM by liquid scintillation counting relative to control; format: cell-based
Adenosine receptor A1 [6] = target: T4, Adenosine receptor A1 (Rattus norvegicus, UniProt P25099); assay: Displacement of [3H]DPCPX from adenosine A1 receptor in Wistar rat cerebral cortex by liquid scintillation counting; format: tissue-based
T4 sequence (P25099 whole entry): T2 sequence (whole entry)

Adenosine receptor A1 [7] = target: T4, Adenosine receptor A1; assay: Displacement of [3H]CCPA from adenosine A1 receptor in Wistar rat cerebral cortex by liquid scintillation counting; format: tissue-based
Adenosine receptor A2a [8] = target: T1, Adenosine receptor A2a; assay: Displacement of [3H]ZM241385 from human recombinant adenosine A2A receptor expressed in CHO cells by liquid scintillation counting; format: cell-based
Adenosine receptor A2a [9] = target: T1, Adenosine receptor A2a; assay: Displacement of [3H]CGS21680 from human recombinant adenosine A2A receptor expressed in CHO cells by liquid scintillation counting; format: cell-based
Adenosine receptor A3 = target: T5, Adenosine receptor A3 (Homo sapiens, UniProt P0DMS8); assay: Displacement of [3H]NECA from human recombinant adenosine A3 receptor expressed in CHO cells by liquid scintillation counting; format: cell-based
T5 sequence (P0DMS8 whole entry): T3 sequence (whole entry)

Adenosine receptor A2a [10] = target: T1, Adenosine receptor A2a; settings: CHO
Description: Displacement of [3H]ZM241385 from human adenosine A2A receptor expressed in CHO cells assessed as time course of dissociation at 10 uM by liquid scintillation counting relative to control

Adenosine receptor A2a [11] = target: T1, Adenosine receptor A2a; settings: CHO; remark: listed apart in the source
Description: Dissociation of [3H]ZM241385 from human adenosine A2A receptor expressed in CHO cells at 100 uM by liquid scintillation counting relative to control

Aorta [12] = assay: tissue or blood; settings: Rattus norvegicus, Wistar, 20 min, read-out: pIC50 (converted)
Aorta [13] = assay: Potentiation of CGS-21680-induced vasorelaxation activity in Wistar rat endothelium-intact aortic ring assessed as inhibition of noradrenaline-induced contraction at 10 uM after 20 mins; format: functional
Aorta [14] = assay: Vasorelaxation activity in Wistar rat endothelium-intact aortic ring assessed as inhibition of noradrenaline-induced contraction after 20 mins; settings: read-out: pIC50 (converted)
Aorta [15] = assay: Vasorelaxation activity in Wistar rat endothelium-intact aortic ring assessed as inhibition of noradrenaline-induced contraction at 10 uM after 20 mins; format: functional

SMILES | Activity (Adenosine receptor A2a [1]) | Activity [2] | Activity [3] | Activity [4] | Activity (Adenosine receptor A2a [5]) | other results
O=[N+]([O-])c1ccc(Nc2nc(-c3ccccc3)nc3c2nnn3Cc2ccccc2)cc1 | 96% | 33% | 58% | 105% | 98% | 
Nc1ccc(Nc2nc(-c3ccccc3)nc3c2ncn3Cc2ccccc2)cc1 | 44% | 7% | 56% | 46% | 59% | Ki (Adenosine receptor A1 [6]): 0.396 µM; Ki (Adenosine receptor A1 [7]): 0.294 µM; Ki (Adenosine receptor A2a [8]): 5.74 µM; Ki (Adenosine receptor A2a [9]): 4.17 µM
O=C(Nc1ccc(F)cc1)Nc1ccc(Nc2nc(-c3ccccc3)nc3c2ncn3Cc2ccccc2)cc1 | 83% | 85% | 70% | 105% | 111% | 
O=C(Nc1ccccc1)Nc1ccc(Nc2nc(-c3ccccc3)nc3c2nnn3Cc2ccccc2)cc1 | 57% | 79% | 78% | 110% | 133% | 
O=[N+]([O-])c1ccc(Nc2nc(-c3ccccc3)nc3c2ncn3Cc2ccccc2)cc1 | 114% | 2% | 51% | 84% | 84% | Ki (Adenosine receptor A1 [6]): 0.699 µM; Ki (Adenosine receptor A1 [7]): 0.571 µM; Ki (Adenosine receptor A2a [8]): 1.9 µM
O=C(Nc1ccc(Nc2nc(-c3ccccc3)nc3c2ncn3Cc2ccccc2)cc1)Nc1ccc(C(F)(F)F)cc1 | 57% | 67% | 37% | 106% | 149% | Ki (Adenosine receptor A3): 5.61 µM
COc1ccc(NC(=O)Nc2ccc(Nc3nc(-c4ccccc4)nc4c3ncn4Cc3ccccc3)cc2)cc1 | 120% | 68% | 56% | 107% | 166% | 
Nc1ccc(Nc2nc(-c3ccccc3)nc3c2nnn3Cc2ccccc2)cc1 | 0% | 4% | 49% | 33% | 77% | EC50 (Adenosine receptor A1 [6]): 0.75 µM; Ki (Adenosine receptor A1 [6]): 0.132 µM; Ki (Adenosine receptor A1 [7]): 0.103 µM; T1/2 (Adenosine receptor A2a [10]): 8.89 s; EC50 (Adenosine receptor A2a [8]): 9.74 µM; Ki (Adenosine receptor A2a [8]): 1.3 µM; Ki (Adenosine receptor A2a [9]): 0.28 µM; Kdiss (Adenosine receptor A2a [11]): 0.078 s⁻¹
O=C(Nc1ccccc1)Nc1ccc(Nc2nc(-c3ccccc3)nc3c2ncn3Cc2ccccc2)cc1 | 74% | 73% | 53% | 101% | 107% | 
O=C(Nc1ccc(F)cc1)Nc1ccc(Nc2nc(-c3ccccc3)nc3c2nnn3Cc2ccccc2)cc1 | 176% | 72% | 92% | 107% | 167% | T1/2 (Adenosine receptor A2a [10]): 13.2 s; EC50 (Adenosine receptor A2a [8]): 16 µM; EC50 (Adenosine receptor A2a [9]): 9.95 µM; Kdiss (Adenosine receptor A2a [11]): 0.052 s⁻¹
CCNC(=O)[C@H]1O[C@@H](n2cnc3c(N)nc(NCCc4ccc(CCC(=O)O)cc4)nc32)[C@H](O)[C@@H]1O [CGS-21680] |  |  |  |  |  | IC50 (Aorta [12]): 0.0692 µM; Emax at 10 µM (Aorta [13]): 91%; IC50 (Aorta [14]): 0.263 µM; Emax at 10 µM (Aorta [15]): 76%
COc1ccc(NC(=O)Nc2ccc(Nc3nc(-c4ccccc4)nc4c3nnn4Cc3ccccc3)cc2)cc1 | 59% | 74% | 58% | 105% | 142% | 
O=C(Nc1ccc(Nc2nc(-c3ccccc3)nc3c2nnn3Cc2ccccc2)cc1)Nc1ccc(C(F)(F)F)cc1 | 180% | 74% | 72% | 94% | 127% | 
